Laboratory results: paper PMC8930988, “The NSAID glafenine rescues class 2 CFTR mutants via cyclooxygenase 2 inhibition of the arachidonic acid pathway” (Scientific Reports, 2022)
Structures can show the parent of a compound that is named as a salt.

Biological target: T1, cyclooxygenase 2 (COX2) (Homo sapiens, UniProt P35354)
T1 construct: gene PTGS2; recombinant COX-2 (kit)
T1 sequence (P35354 18-604): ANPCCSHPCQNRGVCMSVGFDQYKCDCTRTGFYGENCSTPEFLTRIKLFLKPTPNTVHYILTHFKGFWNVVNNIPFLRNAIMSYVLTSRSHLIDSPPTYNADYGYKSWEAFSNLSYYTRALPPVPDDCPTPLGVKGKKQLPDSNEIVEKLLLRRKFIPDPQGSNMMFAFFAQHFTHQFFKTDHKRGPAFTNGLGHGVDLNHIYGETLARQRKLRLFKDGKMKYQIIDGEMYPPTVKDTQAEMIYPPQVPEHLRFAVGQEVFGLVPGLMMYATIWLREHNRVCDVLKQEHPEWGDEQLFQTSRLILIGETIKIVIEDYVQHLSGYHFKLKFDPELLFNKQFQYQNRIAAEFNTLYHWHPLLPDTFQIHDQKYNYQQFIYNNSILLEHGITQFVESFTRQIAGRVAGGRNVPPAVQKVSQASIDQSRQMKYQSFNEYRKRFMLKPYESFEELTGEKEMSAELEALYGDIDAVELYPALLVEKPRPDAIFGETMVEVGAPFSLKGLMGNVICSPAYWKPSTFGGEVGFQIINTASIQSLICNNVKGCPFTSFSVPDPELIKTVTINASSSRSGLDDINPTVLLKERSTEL
Experiment: COX activity assay with recombinant enzyme, […] compound (Fig. 4E)
Format: biochemical

For `O=C(OCC(O)CO)c1ccccc1Nc1ccnc2cc(Cl)ccc12` (stereo not shown) [compound 37, 2,3-dihydroxypropyl 2-[(7-chloroquinolin-4-yl)amino] benzoate; hydrochloride], the “COX activity assay with recombinant enzyme, 10 μM compound (Fig. 4E)” value was “COX2 inhibition is required for glafenine-mediated CFTR correction and that glafenine interacts directly with COX2”.
